According to patent publication US20160046616A1, “NRF2 SMALL MOLECULE INHIBITORS FOR CANCER THERAPY” (THE JOHNS HOPKINS UNIVERSITY, priority 2013, published 2016):

How the values were obtained:
Type in all cases: cell-based
[1] = tested on: A549 NRF2-ARE-Fluc stable cell line; assay: A549 Nrf2 assay: NRF2-ARE firefly luciferase reporter gene assay; settings: Homo sapiens, read-out: Potency of inhibition, A549
How it was run: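 A549 cells (Keap1 loss-of-function, constitutive NRF2) stably carrying ARE-driven firefly luciferase; compound treatment 18–24 h at 37 °C, 0.46% DMSO final.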

[2] = tested on: H838 NRF2-ARE-Fluc stable cell line; assay: H838 Nrf2 assay: NRF2-ARE firefly luciferase reporter gene assay; settings: Homo sapiens, NCI-H838, read-out: Potency of inhibition, H838
Excerpt: H838 is a NSCLC cell line with LOF Keap1 activity and constitutive translocation of NRF2 into the nucleus. A firefly luciferase reporter construct driven by a minimal promoter of NRF2-specific ARE is stably expressed in the H838 cells. This cell line was used as a confirmation assay to make sure hits identified from primary screening and that passed counterscreen assays worked in different cell types with a constitutively active NRF2 pathway (deficiency in Keap1).
This assay was very similar to the primary assay except that the cell line was changed. […] The final concentration of DMSO was maintained at 0.46%. Control compounds Budesonide and Staurosporine were both added at a concentration of 2 mM and Budesonide was also added as a 1:10 titration, starting at 200 μM, to achieve dose-response. After an 18-24 hour incubation at 37° C., 95% humidity, and 5% CO2, 1 μL of 5× CellTiter-Fluor non-lytic cell viability assay reagent (Promega, Madison Wis.) was added into the each well of the plates. The plates were then incubated for 30 minutes at room temperature before they were read on a ViewLux plate imager (Perkin Elmer, Waltham Mass.) using an excitation wavelength of 405 nm and an emission wavelength of 525 nm.
Representative compounds were assayed to assess the potency of inhibition in an A549 NRF2-ARE-Fluc stable cell line (A549 Nrf2 assay), in an H838 NRF2-ARE-Fluc stable cell line (H838 Nrf2 assay), and in an H1437 NRF2-ARE-Fluc stable cell line (H1437 Nrf2 assay) (see Table 3).

[3] = tested on: H1437 NRF2-ARE-Fluc stable cell line; assay: H1437 Nrf2 assay: NRF2-ARE firefly luciferase reporter gene assay; settings: Homo sapiens, NCI-H1437, H1437 NRF2-ARE-Fluc stable cell line; read-out: Potency of inhibition, H1437

Row | IC50 [1] | IC50 [2] | IC50 [3] | Structure (SMILES)
1 | < 5 µM | > 25 µM | 5 to 25 µM | O=C(Nc1ccc(S(=O)(=O)N2CCOCC2)cc1)c1ccc(CN2CCc3ccccc3C2)cc1 [Compound 48]
2 | < 5 µM | > 25 µM | < 5 µM | CCN(CC)S(=O)(=O)c1cccc(NC(=O)CNc2cccc(S(=O)(=O)N3CCOCC3)c2)c1 [Compound 49]
3 | < 5 µM | > 25 µM | > 25 µM | Cc1ccc(C(=O)Nc2nc(-c3ccccn3)cs2)cc1S(=O)(=O)N1CCOCC1 [Compound 50]

Row | Structure (SMILES) | IC50 [1] | IC50 [2] | IC50 [3]
4 | COc1ccccc1C(=O)Nc1nc(-c2ccc(S(=O)(=O)N3CCOCC3)cc2)cs1 [Compound 47] | < 5 µM | < 5 µM | < 5 µM
